From patent publication US10676429B2, “Sulfamoyl-arylamides and the use thereof as medicaments for the treatment of hepatitis B” (priority 2012, dated 2020)
pEC50: −log10 of the molar value.

What was measured:
[1] = tested on: HBV; experiment: Anti-HBV activity in stable transfected HepG2.2.15 cell line (HBV DNA from secreted virions, realtime PCR); assay type: cell-based; details: Hepatitis B virus, HepG2.2.15, 144 h, HepG2.2.15 cells, 6 days of treatment, secreted virion HBV DNA; read-out: HepG2 2.15 EC50
[2] = tested on: HBV; experiment: Anti-HBV activity in HepG2.117 cell line (Tet-off, intracellular HBV DNA, realtime PCR); assay type: cell-based; details: Hepatitis B virus, HepG2.117, 72 h, HepG2.117 cells, 3 days of treatment, intracellular HBV DNA; read-out: HepG2 117 EC50
[3] = Cytotoxicity in HepG2 cells, 4 days, Resazurin assay; details: human, HepG2 cells

Row | Compound | pEC50 [1] | pEC50 [2] | CC50 at 4 days [3] [nM]
1 | CCC1(NS(=O)(=O)c2cccc(C(=O)Nc3ccc(F)c(C)c3)c2)CC1 [Compound 85] | 7.30 | 6.42 | > 25000
2 | CCC(C)(C)NS(=O)(=O)c1cccc(C(=O)Nc2ccc(F)c(C)c2)c1 [Compound 86] | 6.85 | 6.96 | > 25000
3 | CCC1(NS(=O)(=O)c2cccc(C(=O)Nc3ccc(F)cc3)c2)CC1 [Compound 87] | 6.39 | 6.05 | > 25000
4 | CC(C)NS(=O)(=O)c1cccc(C(=O)Nc2ccc(F)c(F)c2)c1 [Compound 88] | 6.68 | 6.40 | > 25000
5 | CCC1(NS(=O)(=O)c2cccc(C(=O)Nc3ccc(F)cc3)c2)COC1 [Compound 89] | 6.27 | 6.14 | > 25000
6 | O=C(Nc1ccc(F)c(F)c1)c1cccc(S(=O)(=O)N[C@H]2CCOC2)c1 [Compound 90] | 6.42 | 6.29 | > 25000
7 | C#Cc1cc(NC(=O)c2cccc(S(=O)(=O)NC(C)C)c2)ccc1F [Compound 91] | 6.28 | 6.11 | > 25000
8 | CCc1cc(NC(=O)c2cccc(S(=O)(=O)NC(C)C)c2)ccc1F [Compound 92] | 6.51 | 5.59 | > 25000
9 | CCC1(NS(=O)(=O)c2cccc(C(=O)Nc3ccc(F)c(C)c3)c2)COC1 [Compound 93] | 7.15 | 6.66 | > 25000
10 | Cc1cc(NC(=O)c2cccc(S(=O)(=O)NC3(C)CC3)c2)ccc1F [Compound 94] | 6.82 | 6.64 | > 25000
11 | CC(C)NS(=O)(=O)c1cccc(C(=O)Nc2ccc(F)c(C(C)C)c2)c1 [Compound 95] | 5.85 | 5.55 | > 25000
12 | CC(C)NS(=O)(=O)c1cccc(C(=O)Nc2ccc(F)c(C(F)F)c2)c1 [Compound 96] | 7.00 | 6.54 | > 25000
13 | Cc1cc(NC(=O)c2cccc(S(=O)(=O)NC3(C)COC3)c2)ccc1F [Compound 97] | 6.92 | 6.43 | > 25000
14 | CC[C@@H](C)NS(=O)(=O)c1cccc(C(=O)Nc2ccc(F)c(C)c2)c1 [Compound 98] | 7.00 | 6.51 | > 25000
15 | Cc1cc(NC(=O)c2cccc(S(=O)(=O)NC(C)C)c2)cc(F)c1F [Compound 99] | 7.05 | 6.34 | > 25000
16 | CC[C@@H](C)NS(=O)(=O)c1ccc(F)c(C(=O)Nc2ccc(F)c(F)c2)c1 [Compound 100] | 6.89 | 6.37 | > 25000
17 | O=C(Nc1ccc(F)c(F)c1)c1cc(S(=O)(=O)N[C@H]2CCOC2)ccc1F [Compound 101] | 6.37 | 5.82 | > 25000
18 | O=C(Nc1ccc(F)c(C(F)F)c1)c1cccc(S(=O)(=O)N[C@H]2CCOC2)c1 [Compound 102] | 6.74 | 6.48 | > 25000
19 | N#Cc1cc(NC(=O)c2cccc(S(=O)(=O)N[C@H]3CCOC3)c2)ccc1F [Compound 105] | 6.09 | 6.01 | > 25000
20 | COc1ccc(NC(=O)c2cccc(S(=O)(=O)N[C@H]3CCOC3)c2)cc1C [Compound 107] | 5.11 | 4.86 | > 25000
21 | CC1(NS(=O)(=O)c2cccc(C(=O)Nc3ccc(F)c(O)c3)c2)COC1 [Compound 108] | 5.14 | 5.03 | > 25000
22 | COc1cc(NC(=O)c2cccc(S(=O)(=O)NC3(C)COC3)c2)ccc1F [Compound 109] | 5.91 | 5.60 | > 25000
23 | C=Cc1cc(NC(=O)c2cccc(S(=O)(=O)NC3(C)COC3)c2)ccc1F [Compound 110] | 6.18 | 6.07 | > 25000

Row | Compound | pEC50 [1] | pEC50 [2] | CC50 at 4 days [3] [nM]
24 | CC1(NS(=O)(=O)c2cccc(C(=O)Nc3ccc(F)c(CO)c3)c2)COC1 [Compound 111] | 5.35 | 5.83 | > 25000
25 | Cc1cc(NC(=O)c2cccc(S(=O)(=O)N[C@H]3CCOC3)c2F)ccc1F [Compound 112] | 7.52 | 6.85 | > 25000
26 | Cc1ccc(S(=O)(=O)NC2(C)COC2)cc1C(=O)Nc1ccc(F)c(C(F)F)c1 [Compound 113] | 6.82 | 6.74 | > 25000
27 | COc1ccc(NC(=O)c2cccc(S(=O)(=O)NC(C)C)c2)cc1F [Compound 114] | 5.87 | 5.50 | > 25000
28 | Cc1cc(NC(=O)c2cccc(S(=O)(=O)NC(C)CN3CCN(C)CC3)c2)ccc1F (stereo not drawn) [Compound 116] | 5.71 | 6.05 | > 25000
29 | Cc1cc(NC(=O)c2cccc(S(=O)(=O)NC(C)CN3CCOCC3)c2)ccc1F (stereo not drawn) [Compound 117] | 6.06 | 6.30 | > 25000
30 | Cc1cc(NC(=O)c2cccc(S(=O)(=O)NC(C)Cc3ccccn3)c2)ccc1F (stereo not drawn) [Compound 120] | 6.28 | 6.29 | > 25000
31 | Cc1cc(NC(=O)c2cc(S(=O)(=O)N[C@H]3CCOC3)ccc2C)ccc1F [Compound 121] | 6.80 | 6.89 | > 25000
32 | Cc1cc(NC(=O)c2cc(S(=O)(=O)NC3(C)COC3)ccc2C)ccc1F [Compound 122] | 6.89 | 6.74 | > 25000
33 | Cc1cc(NC(=O)c2cc(Cl)cc(S(=O)(=O)N[C@H]3CCOC3)c2F)ccc1F [Compound 123] | 6.82 | 6.52 | > 25000
34 | Cc1cc(NC(=O)c2cccc(S(=O)(=O)N[C@H]3CCOC3)c2Cl)ccc1F [Compound 124] | 6.48 | 6.17 | > 25000
35 | Cc1cc(NC(=O)c2c(Cl)ccc(S(=O)(=O)N[C@H]3CCOC3)c2Cl)ccc1F [Compound 125] | 5.84 | 5.94 | > 25000
36 | Cc1cc(NC(=O)c2cccc(S(=O)(=O)N[C@H]3CCOC3)c2C)ccc1F [Compound 126] | 5.86 | 6.05 | > 25000
37 | CC1(NS(=O)(=O)c2cccc(C(=O)Nc3ccc(F)c(CF)c3)c2)COC1 [Compound 127] | 6.64 | 6.24 | > 25000
38 | Cc1cc(NC(=O)c2cccc(S(=O)(=O)NC3CC4CCC3O4)c2)ccc1F (stereo not drawn) [Compound 128] | 6.64 | 6.27 | > 25000
39 | Cc1cc(NC(=O)c2cccc(S(=O)(=O)N[C@@H]3CCOC3)c2)ccc1F [Compound 129] | 6.46 | 6.11 | > 25000
40 | Cc1cc(NC(=O)c2cccc(S(=O)(=O)N[C@H]3CCCC[C@@H]3O)c2)ccc1F [Compound 131] | 5.58 | 5.76 | > 25000
41 | Cc1cc(NC(=O)c2cccc(S(=O)(=O)N[C@H]3CC[C@H](O)CC3)c2)ccc1F [Compound 133] | 6.22 | 5.77 | > 25000
42 | Cc1cc(NC(=O)c2cccc(S(=O)(=O)N3CC4(COC4)C3)c2)ccc1F [Compound 135] | 6.25 | 6.44 | > 25000
43 | Cc1cc(NC(=O)c2cccc(S(=O)(=O)N[C@@H]3c4ccccc4C[C@@H]3O)c2)ccc1F [Compound 136] | 6.33 | 6.09 | > 25000
44 | Cc1cc(NC(=O)c2cccc(S(=O)(=O)N[C@@H]3CCc4ccccc4[C@@H]3O)c2)ccc1F [Compound 137] | 6.18 | 6.04 | 23700
45 | Cc1cc(NC(=O)c2cccc(S(=O)(=O)N[C@H]3CCC[C@@H]3O)c2)ccc1F [Compound 138] | 5.89 | 5.64 | > 25000
